Measured values reported in patent publication US11684675B2, “Dimeric collagen hybridizing peptides and methods of using” (University of Utah Research Foundation, priority 2015, dated 2023).
Non-standard residues stand in square brackets, D forms with d. No end group written: not given here. Hyp = O=C(O)[C@@H]1C[C@@H](O)CN1; CF = carboxyfluorescein label

Experiments:
[1] = tested on: crosslinked gelatin films; assay: Retention of CF-labelled CHPs in crosslinked gelatin films (bound at 4° C., washed at 25° C./r.t.); type: binding, porcine; conditions: for retention in crosslinked gelatin films: Example 3 retention studies; for retention / affinity in gelatin films: 20 μM, preheated 80° C., bound at 4° C., washed at r.t. with PBS, FIG. 6A
Experimental: (§1) (A) Fraction of peptide remaining in a crosslinked gelatin film after 17 h at 25° C. (10 total washes). Values are normalized to fluorescence remaining in wells after 6 washes at 4° C. (>95% removal of CHPs 9r, 6r, and 5r). All washes performed in 1×PBS. (B) CHPs (15 μM) premixed into 10% porcine gelatin and preheated to 80° C. (10 min) before being added to a 96 well plate. Excess CHP-gelatin mixture was removed, then the premix was incubated at 4° C. for 2 hours. Wells were washed at 4° C., 5 times (>95% removal of CHPs 9r, 6r, and 5r). Wells were then washed for 2 hours (6 washes total) at 25° C. to monitor CHP remaining in the well. (C) Fluorescence of CHPs remaining in crosslinked gelatin after incubation at 37° C. overnight without preheating, followed by washing with 1×PBS at 37° C. (20 h). (D) Fluorescence of CHPs remaining in crosslinked gelatin after incubation at 37° C. overnight (80° C. preheating, 10 min), followed by washing with 1×PBS at 37° C. (20 h).
Binding to Gelatin films. Peptide solutions (20 μM in PBS) were preheated to 80° C. for 10 minutes before being added directly to the crosslinked gelatin films. Peptides were allowed to fully equilibrate with the gel at 4° C. overnight before being exposed to repeated washes (4×30 min) at 4° to fully remove any non-specifically bound peptide. Gelatin wells were then washed at r.t. with PBS (5×1 h, lx 12 h) to measure retention within the gelatin films. […] To eliminate the possibility of these peptides merely becoming physically entrapped within the gelatin after forming triple helix or forming triple helix before binding, binding affinity was verified by producing a premix of the CHPs and Gelatin to eliminated diffusion-limited binding before washing the wells in a similar manner.
Fluorescence Binding: CHP binding to gelatin was monitored by conjugating a fluorescent Carboxyfluorescein (CF) molecule to the N-terminus of each peptide via standard SPPS. Solutions of the fluorescent peptides were heated to 80° C. for 5 min before injecting 50 μL onto a pre-prepared EDC-crosslinked thin gelatin film in a 96 well plate. Peptides incubated overnight at 4° C., then washed with repeated rounds of 4° C. 1×PBS followed by 25° C. 1×PBS.

[2] = Triple helix melting point (Tm) by circular dichroism at 225 nm; type: physicochemical; conditions: triple helix melting
Experimental: FIGS. 5A, 5B, 5C, and 5D show the thermal denaturation of fully assembled CHPs and subsequent cooling to initial temperature. Samples were heated at 1° C./min from their initial temperature final temperature of 90° C. Sample was then cooled at 1° C./min to the starting temperature. (A) Thermal denaturation and partial reassembly of CHP CF-6d (150 μM) monitored at 225 nm. Sample was measured from 4° C. to 90° C. (B) Thermal denaturation and partial reassembly of CHP […] (75 μM, corresponding to 150 μM strand concentration) monitored at 225 nm. Sample was measured from 4° C. to 90° C. (C) Thermal denaturation and partial reassembly of CHP CF-9 (150 μM) monitored at 225 nm. Sample was measured from 10° C. to 90° C. (D) Thermal denaturation and partial reassembly of CHP CF-9d (75 μM, corresponding to 150 μM strand concentration) monitored at 225 nm. Sample was measured from 10° C. to 90° C.
FIGS. 11A and 11B show the First Derivative of mean residue ellipticity (MRE) at 225 nm in CD. […] There is no significant change in melting point between the monomeric and dimeric forms of the same peptide.
(§2) Circular Dichroism: Circular Dichroism (CD) was measured for all peptides at 225 nm. Melting curves were taken on peptides between 10 and 80° C. at a heating rate of 0.5° C./min, with pauses at each 1° C. Refolding experiments were performed after peptide solutions were incubated at 4° C. for at least 12 hours. Concentrations were normalized to strand concentration.

[3] = tested on: crosslinked gelatin films; assay: Binding of CF-labelled CHPs to crosslinked gelatin films at 37° C. with and without preheating; set-up: species or system porcine; conditions: for binding to gelatin wells at 37° C. without preheating: 20 μM, 37° C. overnight, PBS wash 20 h, FIG. 6C
Experimental: FIGS. 3A and 3B show the affinity of CHPs to gelatin films as monitored by fluorescence of conjugated CF fluorophore (492 ex, 533 em). (A) Fluorescence of CHPs bound to crosslinked gelatin after incubation at 37° C. overnight with no workup. (B) Fluorescence of CHPs remaining in crosslinked gelatin after incubation at 37° C. overnight without preheating, followed by washing with 1×PBS at 37° C. (20 h).
as §1
Dimeric CHPs were assessed for their ability to bind to collagen strands in crosslinked gelatin films. CHP solutions (20 μM in PBS) were added directly to the crosslinked gelatin films. For heated experiments, CHPs were preheated to 80° C. for 10 minutes before addition. Peptides were allowed to fully equilibrate with the gel at 37° C. overnight before being exposed to repeated washes (4×, PBS) at 37° C. to fully remove any non-specifically bound peptide and to determine binding level at body temperature. To measure retention, peptides were bound as previously described, but were subsequently washed with PBS 37° C. (5×1 h, 1×12 h) to measure retention within the gelatin films. […] Additionally, after a period of 20 hours, higher level of the dimeric CHP remained in the gelatin compared to the monomeric CHP.
A major limitation of the use of CHP in vivo, is the requirement of the triple helix to be fully disassembled before being injected. […] For this test, peptide solutions were allowed to warm to room temperature before being added (50 μL, 20 μM) to previously prepared crosslinked gelatin films. Solutions were then incubated at 37° C. overnight before removing the solution. Wells were washed at 37° C. with PBS (20 h) to determine binding. Preheated samples were prepared and incubated in the same way, but with preheating (80° C., 10 min) before being added to the crosslinked gelatin wells.

[4] = CD refolding (triple helix assembly) at 10° C. monitored at 225 nm; type: physicochemical; conditions: 10° C., FIG. 12A
Experimental: Conversion was assumed to be at 100% after 96 h incubation at 4° C., and max trimer concentration was measured via CD ellipticity at 10° C. Samples were preheated to 80° C. in the sample cuvette for 10 min before being transferred directly to the sample holder held at a constant 10° C. Sample measurement began immediately. Initial time point for analysis was determined by measuring time for a blank (lx PBS) to thermally equilibrate in these conditions.
For all peptides, conversion was assumed to be at 100% after 96 h incubation at 4° C., and max trimer concentration was measured via CD ellipticity at 10° C. Samples were preheated to 80° C. in the sample cuvette for 10 min before being transferred directly to the sample holder held at a constant 10° C. Sample measurement began immediately. Initial time point for analysis was determined by measuring time for a blank (1×PBS) to thermally equilibrate in these conditions. This was set as the zero point for all peptides, as the large jump in CD due to temperature makes the initial jump irresolvable. (A) Rate of assembly of CHP 9 (60, 30, and 15 μM), over 2 h, monitored at 225 nm. (B) Rate of assembly of CHP 9d (30, 15, and 7.5 μM, corresponding to same CHP strand concentration from panel A), over 2 h, monitored at 225 nm. (C) Rate of assembly of CHP 6 (150 and 75 μM), over 2 h, monitored at 225 nm.
FIGS. 12A and 12B show CD refolding at 10° C. of CMPs monitored at 225 nm. CMPs were heated to 80° C. for 5 minutes before being placed into the CD and initial 2 min of monitored data was removed to eliminate thermal transition. Signal was normalized to that of a fully folded peptide.
as §2

porcine gelatin = assay: SPR gelatin capture by immobilized biotinylated CHPs; type: binding; conditions: gelatin 25 μg/mL
Experimental: FIGS. 7A and 7B show SPR data for porcine gelatin capture by immobilized CHPs. […] Gelatin was applied to the sensor surface during the association phase, followed by elution with blank during dissociation phase. Association occurred for 981 s, followed by dissociation for 1800 s. Values were normalized to a 100% biotin lane, and were adjusted to the mass of peptide immobilized in each well. (A) Preheated (80° C., 10 min), quenched (0° C., 30 s) gelatin (25 μg/mL) was applied to the sensor at an ambient temperature of 37° C. (B) Preheated (80° C., 10 min), quenched (0° C., 30 s) gelatin (25 μg/mL) was applied to the sensor at an ambient temperature of 15° C.
Surface Plasmon Resonance (SPR). […] However, there were major differences observed during the association phase. At 37° C., there was a much higher amount of gelatin adsorbed to all the peptides tested on the surface when compared to 15° C. […] At 15° C., gelatin adsorbed to the surface at a much slower rate. […] However, this lower adsorption rate can be due to a reduced diffusion rate near the surface or a more condensed gelatin structure at this lower temperature.
Dimeric CHP is able to hybridize effectively with denatured collagens with faster folding kinetics than current, monomeric CHPs. Surface plasmon resonance (SPR) was used to measure the ability of the CHPs to trap denatured collagen from solution.

Substance | Tm (° C.) ([2]; Table 1) | Tm (° C.) ([2]; Table 2) | retention / affinity in gelatin films [1] | further results
CF-G3-(GPO9) [CF-9] | 69 (SEQ ID NO: 57) ° C. | 69 (SEQ ID NO: 57) ° C. | – | retention in crosslinked gelatin films [1]: 58%
CF-G3-(GPO5) (GGGGPPGPPGPPGPPGPP; carboxyfluorescein label; collagen hybridizing peptide; (6)..(6) Proline is hydroxyproline; (9)..(9) Proline is hydroxyproline; (12)..(12) Proline is hydroxyproline; (15)..(15) Proline is hydroxyproline; (18)..(18) Proline is hydroxyproline) [CF-5, reference compound] | – | 28 (SEQ ID NO: 69) ° C. | almost entirely washed out of the gelatin films | –
(GPO)6-G3K^Biotin [b-6] | – | 36 (SEQ ID NO: 64) ° C. | – | –
[(GPO)6G3)2KG3K^Biotin [b-6d] | – | 37 (SEQ ID NO: 65) ° C. | – | –
(GPO)9-G3K^Biotin [b-9] | – | 68 (SEQ ID NO: 61) ° C. | – | –
(GPO)5 [compound 5, reference compound] | – | 27 (SEQ ID NO: 67) ° C. | – | binding to gelatin wells at 37° C. without preheating [3]: do not have a strong enough affinity to the gelatin to bind effectively at physiologic temperature
[(GPO)9G3)2KG [9d] | 69 (SEQ ID NO: 55) ° C. | 69 (SEQ ID NO: 55) ° C. | – | binding to gelatin wells at 37° C. without preheating [3]: bind more significantly than the GPO9 monomer without preheating; increase in refolding rate compared to monomeric GPO9 [4]: two-fold; ability to bind gelatin (porcine gelatin; 15° C.): maintained its greater ability to bind gelatin; ability to bind gelatin (porcine gelatin; 37° C.): higher ability to bind gelatin than that of an equivalent number of strands in their monomeric counterparts
CF-G3-(GPO6) (GGGGPPGPPGPPGPPGPPGPP; carboxyfluorescein label; collagen hybridizing peptide; (6)..(6) Proline is hydroxyproline; (9)..(9) Proline is hydroxyproline; (12)..(12) Proline is hydroxyproline; (15)..(15) Proline is hydroxyproline; (18)..(18) Proline is hydroxyproline; (21)..(21) Proline is hydroxyproline) [CF-6] | 37 (SEQ ID NO: 60) ° C. | 37 (SEQ ID NO: 60) ° C. | almost entirely washed out of the gelatin films | –
[(CF-G3GPO)5G3)2KG ({CF}-GGGGP[Hyp]GP[Hyp]GP[Hyp]GP[Hyp]GP[Hyp]GGGKGGG[Hyp]PG[Hyp]PG[Hyp]PG[Hyp]PG[Hyp]PGGGG; not fully specified (C-terminus); also: lysine-branched dimer: K22 is the branch point, second arm (23-43) is written reversed, its N-terminus at position 43 carries CF) [CF-5d] | – | 28 (SEQ ID NO: 70) ° C. | higher affinity to the gelatin films than CF-6 | –
[(GPO)5G3)2KG (GP[Hyp]GP[Hyp]GP[Hyp]GP[Hyp]GP[Hyp]GGGKGGG[Hyp]PG[Hyp]PG[Hyp]PG[Hyp]PG[Hyp]PG; not fully specified (C-terminus); also: lysine-branched dimer: K19 is branch point carrying two arms and a third (C-terminal) Gly, residues 20-37 are the second arm written in reverse order) [5d] | – | 27 (SEQ ID NO: 68) ° C. | – | –
[(CF-Ahx-GPO)9G3)2KG [CF-9d] | 73 (SEQ ID NO: 55 °C | 73 (SEQ ID NO: 55 w/label) ° C. | – | –
[(GPO)9G3)2KG3K^Biotin [b-9d] | – | 68 (SEQ ID NO: 62) ° C. | – | –
[(CF-G3GPO)6G3)2KG [CF-6d] | 50 (SEQ ID NO: 63) ° C. | 50 (SEQ ID NO: 63) ° C. | comparable affinity to that of the GPO9 monomer (CF-9) and GPO9 dimer (CF-9d) | more peptide remaining after 20 hours of wash ([3]; 37° C., non-preheated, vs currently utilized CHP, FIG. 17): 50%; higher initial binding to the gelatin substrate ([3]; non-preheated, vs currently utilized CHP, FIG. 17): 350%; retention in crosslinked gelatin films [1]: 66%
